From article PMC11477965, “Synthesis and Anti-Liver Fibrosis Research of Aspartic Acid Derivatives” (Molecules, 2024) come the findings set out here.

Structures are written as SMILES. “Also recorded” adds a separate entry of the source. Like-named read-outs stand apart in the source and are kept apart here. Where a SMILES comes first, the peptide text is derived from it.

Holding throughout (assay type): cell-based, human
One data set has as its system COL1A1 promoter. The data set is described as follows: COL1A1 promoter luciferase reporter inhibition assay in LX-2 cells.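 As to all read-outs here: Anti-fibrotic screen: luciferase reporter driven by the COL1A1 promoter in human hepatic stellate LX-2 cells, compounds applied in complete medium in 96-well plates.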 The note with it: for inhibition at 500 µM: read-out: Inhibitory Rate (%) of COL1A1 promotor; for relative fluorescence unit (RFU) of COL1A1 promotor: mean ± SD, n = 3, Control 124874.7 ± 10750.9. On the technique in general: A reporter such as luciferase makes a cellular process visible.

Data set [1] can be described thus: SRB cytotoxicity assay in LX-2 cells. Conditions: human, LX-2 cells, SRB assay. How it is done:
(§1) Their cytotoxicity in LX-2 cells was assessed across various concentrations using the SRB assay, and the cytotoxic concentrations (CC50) were determined. The selectivity index (SI), calculated as the ratio of CC50 to the […] (IC50), was employed to evaluate the compounds’ effects on the COL1A1 promoter (Table 2).
(§2) The LX-2 cells were seeded in a 96-well plate when reaching 90% confluent. After 24 h, the compound to be tested was prepared using a complete medium and added to the 96-well plate for 24 h. After washing with PBS, the cells were fixed with 10% (wt/vol) trichloroacetic acid for 1 h, washed with deionized water and dried completely and, after staining with SRB for 20 min, the excess dye was washed with 1% acetic acid (vol/vol) three times. The dye bound to the protein was dissolved with 10 mM Tris base solution and OD values were determined at […].
(In general: In SRB staining, fixed cells bind dye roughly in proportion to their protein.)

Data set [2] relates to LX-2 cells. Kind of data set: SRB cytotoxicity assay in LX-2 cells. The note with it: CC50 in LX-2 cells / IC50 on COL1A1 promoter. The protocol: as §1, §2
Data set [3] relates to fibro-genic gene expression (fibronectin, COL1A1, TGFβ, α-SMA, CTGF, and TIMP1). The data set is described as follows: Western blot of fibro-genic proteins in TGFβ1-activated LX-2 cells. The note with it: TGFβ1 2 ng/mL, 24 h; for expression of fibro-genic genes (western blot): compound 100 μmol/L. The protocol: (§3) To evaluate the anti-fibrotic efficacy in vitro, we assessed the downregulatory effects of ten active compounds (3, 4c, 4d, 8a, 9, 28a, 32a, 41, 43 and 45) and L-Asp on fibro-genic gene expression (fibronectin, COL1A1, TGFβ, α-SMA, CTGF, and TIMP1) using western blot analysis. LX-2 cells were activated with TGFβ1 (2 ng/mL) and concurrently treated with each compound (100 μmol/L) for 24 h.
(§4) After the confluence of LX-2 cells reached 90%, the cells were treated with serum-free medium for 24 h. 2 ng/mL TGFβ1 or 1 μg/mL LPS were used in combination with compounds of different concentrations for 24 h. The samples of cells were lysed in RIPA buffer supplemented with protease inhibitor cocktail (Roche) and separated by SDS-PAGE. After the proteins were transferred to the PVDF membrane, 5% skim milk in TBS-T buffer was used to block them at room temperature for 2 h. Specific primary and secondary antibodies were used to detect the target protein. Finally, the blot was visualized using the Tanon 5200 system (Tanon, Shanghai, China) and the protein expression of GAPDH was used as the internal reference.
For orientation: A western blot detects proteins with antibodies after separation by electrophoresis.

For data set [4], the system named is IKKβ-NF-κB signaling pathway. Kind of data set: LPS-induced inflammation in LX-2 cells (western blot). Conditions: 24 h; for LPS-induced phosphorylation and baseline expression of IKKβ, NF-κB phosphorylation and expression: LPS 1 μg/mL, 50, 100, 200, and 500 μmol/L; for IL-6 expression / inhibition of inflammatory factors: LPS 1 μg/mL; for inhibition of inflammatory factors: 500 μM bands scanned. The protocol: Inflammation is crucial in the onset and progression of liver fibrosis, and fibrosis can further exacerbate tissue inflammation. […] To assess the anti-inflammatory effects of Compounds 41 and 8a, LX-2 cells were pre-incubated in serum-free medium for 24 h before LPS stimulation, followed by treatment with different concentrations of the compounds in serum-free medium containing 1 μg/mL LPS for another 24 h. Changes in inflammatory cytokine protein levels were analyzed using western blotting.
The IKKβ-NF-κB signaling pathway has been closely linked to the severity of liver fibrosis, with IKKβ serving as the primary catalytic subunit responsible for NF-κB activation. Therefore, this study investigated the NF-κB pathway by measuring IKKβ kinase activity. […] To evaluate the effects of the target compounds on LPS-induced inflammatory cytokines, four concentrations (50, 100, 200 and 500 μmol/L) were tested, and the results were analyzed by grayscale scanning of western blot bands using ImageJ software (version 1.53t), with normalization to GAPDH protein levels.
as §4

The subject of data set [5] is LX-2 cells. The data set is described as follows: LPS-induced activation of LX-2 cells, fibro-genic proteins (western blot). Conditions: LPS 1 μg/mL, 50, 100, 200, and 500 μmol/L, 24 h. The protocol: Taking the results of Figure 3 and Figure 4 together, it seems that compounds 41 and 8a alleviate inflammation and inhibit liver fibrosis through the IKKβ-NF-κB signaling pathway, as indicated in Figure 5.
as §4

In data set [6] the test system is mRNA expression of COL1A1, TGFβ1, and MMP2. The data set is described as follows: RT-qPCR of fibro-genic mRNA in TGFβ1-activated LX-2 cells. Conditions: TGFβ1 2 ng/mL, 24 h. How it is done: as §3
The LX-2 cells were seeded in a 6-well plate and cultured in a complete medium at 37 °C in a 5% CO2 environment until reaching 90% confluence. After culture without serum medium for 24 h, the cells were treated with 2 ng/mL TGFβ1 or 1 μg/mL LPS and the right concentration of compounds for 24 h. Total RNA was extracted using TRIzol reagent and purified by NucleoSpin RNA Clean-up Kit (Macherey-Nagel, Munich, Germany). Total RNA was reverse-transcribed into […] using a Transcriptor First Strand cDNA Synthesis Kit (Roche, Basel, Switzerland). The relative expression levels of the target gene were determined using a TaqMan probe with an ABI Q3 quantitative real-time PCR system, while GAPDH was utilized as an internal control for mRNA expression. The fold change of target mRNA expression was calculated using Equation 2^−∆∆Ct.

The mark [7] stands for this setting: 24 h, read-out: CC50, cytotoxic concentration required to inhibit the growth of LX-2 cells by 50%.

Experimental for COL1A1 promoter: A total of 32 target compounds, the lead compound L-Asp, and the positive control epigallocatechin gallate (EGCG), known for its anti-hepatic fibrotic activity [29], were tested for inhibitory effects on COL1A1 promoter activity at a concentration of 0.5 mM.
The LX-2 cells at 90% confluent were transfected with the plasmid of pGL4.17-COL1A1 promoter using Lipofectamine 2000 (Invitrogen, 11668019, Carlsbad, CA, USA) with Opti-MEM serum-free medium (Gibco, 1930104). After culturing for 6 h, the cells were replaced with a complete medium and seeded in 96-well plates for 24 h. The compound to be tested was prepared using a complete medium and added to the 96-well plate. After 24 h, Bright-Glo Luciferase Assay System (Promega, Madison, WI, USA) was used to detect the activity of COL1A1 promoter and the assaying inhibition rate.

For `C[C@H](N)C(=O)N[C@@H](CC(=O)O)C(=O)O` [Compound 8a, L-alanyl-L-aspartic acid] (H-Ala-Asp-OH), the inhibition at 500 µM with COL1A1 promoter (Homo sapiens, LX-2, 24 h) was determined as 49.3 ± 13.3%. Moreover, the half-maximal inhibitory concentration (IC50) (usually the point on the concentration scale where inhibition reaches its midpoint) in the data set with COL1A1 promoter (Homo sapiens, LX-2, read-out: IC50 to inhibit the activity of COL1A1 promoter by 50%) was found to be 1050 ± 111 µM. Further, the “relative fluorescence unit (RFU) of COL1A1 promotor” value in the data set on COL1A1 promoter (LX-2 cells) came to 63265.3 ± 16582.4 RFU. Moreover, the CC50 at 24 h in data set [1] (setting [7]) worked out at 13900 µM. The CC50 at 24 h in data set [1] (read-out: CC50 in LX-2 cells) was 13000 µM. The “SI, selectivity index (CC50/IC50)” value in the data set with LX-2 cells [2] was 13.16. Also, the “expression of fibro-genic genes (western blot)” value in data set [3] is “no significant inhibitory effect”. In data set [4], the “LPS-induced phosphorylation and baseline expression of IKKβ, NF-κB phosphorylation and expression” value is “dose-dependent reduction”; the IL-6 expression entry is on record as “significantly suppressed”; the “inhibition of inflammatory factors” value is “superior inhibitory effects”. For the same compound, the “protein expression of COL1A1, fibronectin, α-SMA, and CTGF” value with LX-2 cells [5] is “significantly reducing”.

For the compound `COC(=O)[C@H]1C[C@H](Oc2cc(Cl)nn3c(-c4ccc(OC)c(OC)c4)cnc23)CN1C(=O)OC(C)(C)C` [Compound 41, 1-(tert-butyl)-2-methyl-(2R,4S)-4-((6-chloro-3-(3,4-dimethoxyphenyl)imidazo [1,2-b]pyridazin-8-yl)oxy)pyrrolidine-1,2-dicarboxylate], the IC50 in the data set on COL1A1 promoter (Homo sapiens, LX-2, LX-2 cells, read-out: IC50 to inhibit the activity of COL1A1 promoter by 50%) is 30 µM. In addition, the inhibition at 500 µM with COL1A1 promoter (Homo sapiens, LX-2 cells, 0.5 mM, 24 h) is 66.7 ± 1.96%. For the same compound, the “relative fluorescence unit (RFU) of COL1A1 promotor” value in the data set on COL1A1 promoter (LX-2 cells) amounted to 41555.6 ± 2445.9 RFU. The IC50 in the data set with COL1A1 promoter (LX-2 cells, read-out: IC50 to inhibit the activity of COL1A1 promoter by 50%) amounted to 30.6 ± 0.3 µM. The CC50 at 24 h in data set [1] (setting [7]) amounted to 510 ± 51.5 µM. Besides, in the data set with LX-2 cells [2], the “SI, selectivity index (CC50/IC50)” value is on record as 16.68. In addition, in data set [3], the “expression of fibro-genic genes (western blot)” value was “significantly suppressed”. Further, the “protein levels of fibronectin, COL1A1, and α-SMA following TGFβ1 stimulation” value in data set [3] (different concentrations) is “notably inhibited; also recorded: reduced the protein levels of fibronectin, COL1A1, and α-SMA in a dose-dependent manner”. In addition, in data set [6], the “mRNA expression of COL1A1, TGFβ1, and MMP2” value is listed as “markedly decreased”. For the same compound, in data set [4], the “LPS-induced phosphorylation and baseline expression of IKKβ, NF-κB phosphorylation and expression” value is “dose-dependent reduction”; the IL-6 expression entry was “significantly suppressed”; the “inhibition of inflammatory factors” value is reported as “superior inhibitory effects”. Further, the “protein expression of COL1A1, fibronectin, α-SMA, and CTGF” value in the data set with LX-2 cells [5] is recorded as “significantly reducing; also recorded: potent inhibition”.
